Experiments:
Assay type in all cases: in vivo
[1] = system: pigweed (Amaranthus retroflexus); experiment: Test A preemergence; settings: for Plant response rating, Pigweed: 125 g ai/ha; for Pigweed plant response rating (0 to 100 scale): 0 is no effect, 100 is complete control; for Pigweed plant response rating (0 to 100 scale, 0 is no effect, 100 is complete control): visual injury approx. 10 d
Description: (§1) Seeds of plant species selected from barnyardgrass (Echinochloa crus-galli), Kochia (Kochia scoparia), ragweed (common ragweed, Ambrosia elatior), ryegrass, Italian (Italian ryegrass, Lolium multiflorum), crabgrass, large (Digitaria sanguinalis), giant foxtail (Setaria faberii), green foxtail (Setaria viridis), morningglory (Ipomoea spp.), pigweed (Amaranthus retroflexus), velvetleaf (Abutilon theophrasti), wheat (Triticum aestivum), and corn (Zea mays) were planted into a blend of loam soil and sand and treated preemergence with a directed soil spray using test chemicals formulated in anon-phytotoxic solvent mixture which included a surfactant.
(§2) At the same time, plants selected from these crop and weed species and also blackgrass (Alopecurus myosuroides), and Galium (catchweed bedstraw, Galium aparine) were planted in pots containing the same blend of loam soil and sand and treated with postemergence applications of test chemicals formulated in the same manner. Plants ranged in height from 2 to 10 cm and were in the one- to two-leaf stage for the postemergence treatment. Treated plants and untreated controls were maintained in a greenhouse for approximately 10 d, after which time all treated plants were compared to untreated controls and visually evaluated for injury. Plant response ratings, summarized in Table A, are based on a 0 to 100 scale where 0 is no effect and 100 is complete control. A dash (-) response means no test result.

[2] = system: ragweed (common ragweed, Ambrosia elatior); experiment: Test A preemergence; settings: for Plant response rating, Ragweed: 125 g ai/ha; for Ragweed plant response rating (0 to 100 scale): 0 is no effect, 100 is complete control; for Ragweed plant response rating (0 to 100 scale, 0 is no effect, 100 is complete control): visual injury approx. 10 d
Description: as §1, §2

[3] = system: Kochia (Kochia scoparia); experiment: Test A preemergence; settings: for Plant response rating, Kochia: 125 g ai/ha; for Kochia plant response rating (0 to 100 scale): 0 is no effect, 100 is complete control; for Kochia plant response rating (0 to 100 scale, 0 is no effect, 100 is complete control): visual injury approx. 10 d
Description: as §1, §2

[4] = system: giant foxtail (Setaria faberii); experiment: Test A preemergence; settings: for Plant response rating, Foxtail, Giant: 125 g ai/ha; for Foxtail, Giant plant response rating (0 to 100 scale): 0 is no effect, 100 is complete control; for Foxtail, Giant plant response rating (0 to 100 scale, 0 is no effect, 100 is complete control): visual injury approx. 10 d
Description: as §1, §2

[5] = system: barnyardgrass (Echinochloa crus-galli); experiment: Test A preemergence; settings: for Plant response rating, Barnyardgrass: 125 g ai/ha; for Barnyardgrass plant response rating (0 to 100 scale): 0 is no effect, 100 is complete control; for Barnyardgrass plant response rating (0 to 100 scale, 0 is no effect, 100 is complete control): visual injury approx. 10 d
Description: as §1, §2

[6] = system: ryegrass, Italian (Italian ryegrass, Lolium multiflorum); experiment: Test A preemergence; settings: for Plant response rating, Ryegrass, Italian: 125 g ai/ha; for Ryegrass, Italian plant response rating (0 to 100 scale): 0 is no effect, 100 is complete control; for Ryegrass, Italian plant response rating (0 to 100 scale, 0 is no effect, 100 is complete control): visual injury approx. 10 d
Description: as §1, §2

[7] = system: pigweed (Amaranthus retroflexus); experiment: Test A postemergence
Description: as §1, §2

[8] = system: ragweed (common ragweed, Ambrosia elatior); experiment: Test A postemergence
Description: as §1, §2

[9] = system: Kochia (Kochia scoparia); experiment: Test A postemergence
Description: as §1, §2

[10] = system: corn (Zea mays); experiment: Test A postemergence
Description: as §1, §2

[11] = system: giant foxtail (Setaria faberii); experiment: Test A postemergence
Description: as §1, §2

[12] = system: wheat (Triticum aestivum); experiment: Test A postemergence
Description: as §1, §2

[13] = system: Galium (catchweed bedstraw, Galium aparine); experiment: Test A postemergence
Description: as §1, §2

[14] = system: barnyardgrass (Echinochloa crus-galli); experiment: Test A postemergence
Description: as §1, §2

[15] = system: blackgrass (Alopecurus myosuroides); experiment: Test A postemergence
Description: as §1, §2

[16] = system: ryegrass, Italian (Italian ryegrass, Lolium multiflorum); experiment: Test A postemergence
Description: as §1, §2

[17] = preemergence, 0 to 100 scale (0 no effect, 100 complete control)
[18] = 125 g ai/ha, postemergence, visual injury rating on 0 to 100 scale (0 no effect, 100 complete control), approx. 10 d
[19] = 500 g ai/ha, postemergence, 0 to 100 scale, 0 no effect, 100 complete control
[20] = Postemergence, 125 g ai/ha, visual injury, 0 to 100 scale (0 no effect, 100 complete control), approx. 10 d
[21] = 1000 g ai/ha, postemergence, 0 to 100 scale, 0 no effect, 100 complete control
[22] = Preemergence, visual injury after approximately 10 d, 0 to 100 scale where 0 is no effect and 100 is complete control
[23] = 125 g ai/ha, postemergence, visual rating after approx. 10 d, 0 to 100 scale (0 no effect, 100 complete control)
[24] = Postemergence, 500 g ai/ha, 0 to 100 scale where 0 is no effect and 100 is complete control

O=C1NCC(c2cccc(O)c2)C1C(=O)Nc1cccc(F)c1F (racemic) [Compound 384]
Plant response rating, Pigweed [1, 17]: 0 | Pigweed plant response rating (0 to 100 scale) ([1]; Preemergence, 500 g ai/ha): 0 | Plant response rating, Ragweed [2, 17]: 0 | Ragweed plant response rating (0 to 100 scale) ([2]; Preemergence, 500 g ai/ha): 0 | Plant response rating, Kochia [3, 17]: 0 | Kochia plant response rating (0 to 100 scale) ([3]; Preemergence, 500 g ai/ha): 0 | Plant response rating, Foxtail, Giant [4, 17]: 0 | Foxtail, Giant plant response rating (0 to 100 scale) ([4]; Preemergence, 500 g ai/ha): 0 | Plant response rating, Barnyardgrass [5, 17]: 0 | Barnyardgrass plant response rating (0 to 100 scale) ([5]; Preemergence, 500 g ai/ha): 0 | Plant response rating, Ryegrass, Italian [6, 17]: 0 | Ryegrass, Italian plant response rating (0 to 100 scale) ([6]; Preemergence, 500 g ai/ha): 0 | Pigweed plant response rating [7, 18]: 0 | Plant response rating, Pigweed [7, 19]: 0 | Ragweed plant response rating [8, 18]: 0 | Plant response rating, Ragweed [8, 19]: 0 | Kochia plant response rating [9, 18]: 0 | Plant response rating, Kochia [9, 19]: 0 | Corn plant response rating [10, 18]: 0 | Plant response rating, Corn [10, 19]: 0 | Foxtail, Giant plant response rating [11, 18]: 0 | Plant response rating, Foxtail, Giant [11, 19]: 0 | Wheat plant response rating [12, 18]: 0 | Plant response rating, Wheat [12, 19]: 0 | Galium plant response rating [13, 18]: 0 | Plant response rating, Galium [13, 19]: 0 | Plant response rating, Barnyardgrass [14, 19]: 0 | Plant response rating, Barnyardgrass [14, 20]: 0 | Plant response rating, Blackgrass [15, 19]: 0 | Plant response rating, Blackgrass [15, 20]: 0 | Ryegrass, Italian plant response rating [16, 18]: 0 | Plant response rating, Ryegrass, Italian [16, 19]: 0

O=C(Nc1cccc(F)c1F)C1C(=O)N(CC=Cc2ccccc2)CC1c1cc(F)cc(F)c1 (stereo not shown) [Compound 511]
Pigweed plant response rating (0 to 100 scale) ([1]; Preemergence, 1000 g ai/ha): 0 | Ragweed plant response rating (0 to 100 scale) ([2]; Preemergence, 1000 g ai/ha): 0 | Kochia plant response rating (0 to 100 scale) ([3]; Preemergence, 1000 g ai/ha): 0 | Foxtail, Giant plant response rating (0 to 100 scale) ([4]; Preemergence, 1000 g ai/ha): 90 | Barnyardgrass plant response rating (0 to 100 scale) ([5]; Preemergence, 1000 g ai/ha): 90 | Ryegrass, Italian plant response rating (0 to 100 scale) ([6]; Preemergence, 1000 g ai/ha): 0 | Plant response rating, Pigweed [7, 21]: 0 | Plant response rating, Ragweed [8, 21]: 0 | Plant response rating, Kochia [9, 21]: 0 | Plant response rating, Corn [10, 21]: 0 | Plant response rating, Foxtail, Giant [11, 21]: 90 | Plant response rating, Wheat [12, 21]: 0 | Plant response rating, Galium [13, 21]: 0 | Plant response rating, Barnyardgrass [14, 21]: 90 | Plant response rating, Blackgrass [15, 21]: 20 | Plant response rating, Ryegrass, Italian [16, 21]: 0

CN1CC(c2ccc(Br)cc2)C(C(=O)Nc2ccc(F)cc2F)C1=O (stereo not shown) [Compound 566]
Plant response rating, Pigweed [1, 22]: 80 | Pigweed plant response rating (0 to 100 scale, 0 is no effect, 100 is complete control) ([1]; Preemergence, 500 g ai/ha): 90 | Plant response rating, Ragweed [2, 22]: 60 | Ragweed plant response rating (0 to 100 scale, 0 is no effect, 100 is complete control) ([2]; Preemergence, 500 g ai/ha): 90 | Plant response rating, Kochia [3, 22]: 70 | Kochia plant response rating (0 to 100 scale, 0 is no effect, 100 is complete control) ([3]; Preemergence, 500 g ai/ha): 80 | Plant response rating, Foxtail, Giant [4, 22]: 90 | Foxtail, Giant plant response rating (0 to 100 scale, 0 is no effect, 100 is complete control) ([4]; Preemergence, 500 g ai/ha): 100 | Plant response rating, Barnyardgrass [5, 22]: 90 | Barnyardgrass plant response rating (0 to 100 scale, 0 is no effect, 100 is complete control) ([5]; Preemergence, 500 g ai/ha): 100 | Plant response rating, Ryegrass, Italian [6, 22]: 20 | Ryegrass, Italian plant response rating (0 to 100 scale, 0 is no effect, 100 is complete control) ([6]; Preemergence, 500 g ai/ha): 70 | Plant response rating, Pigweed [7, 23]: 30 | Plant response rating, Pigweed [7, 24]: 60 | Plant response rating, Ragweed [8, 23]: 0 | Plant response rating, Ragweed [8, 24]: 40 | Plant response rating, Kochia [9, 23]: 80 | Plant response rating, Kochia [9, 24]: 80 | Plant response rating, Corn [10, 23]: 0 | Plant response rating, Corn [10, 24]: 40 | Plant response rating, Foxtail, Giant [11, 23]: 90 | Plant response rating, Foxtail, Giant [11, 24]: 90 | Plant response rating, Wheat [12, 23]: 0 | Plant response rating, Wheat [12, 24]: 40 | Plant response rating, Galium [13, 23]: 60 | Plant response rating, Galium [13, 24]: 80 | Plant response rating, Barnyardgrass [14, 23]: 90 | Plant response rating, Barnyardgrass [14, 24]: 90 | Plant response rating, Blackgrass [15, 23]: 20 | Plant response rating, Blackgrass [15, 24]: 70 | Plant response rating, Ryegrass, Italian [16, 23]: 30 | Plant response rating, Ryegrass, Italian [16, 24]: 60

CCc1cccc(C2CN(C)C(=O)C2C(=O)Nc2ccc(F)cc2F)c1 (stereo not shown) [Compound 570]
Plant response rating, Pigweed [1, 22]: 40 | Pigweed plant response rating (0 to 100 scale, 0 is no effect, 100 is complete control) ([1]; Preemergence, 500 g ai/ha): 70 | Plant response rating, Ragweed [2, 22]: 0 | Ragweed plant response rating (0 to 100 scale, 0 is no effect, 100 is complete control) ([2]; Preemergence, 500 g ai/ha): 0 | Plant response rating, Kochia [3, 22]: 60 | Kochia plant response rating (0 to 100 scale, 0 is no effect, 100 is complete control) ([3]; Preemergence, 500 g ai/ha): 80 | Plant response rating, Foxtail, Giant [4, 22]: 100 | Foxtail, Giant plant response rating (0 to 100 scale, 0 is no effect, 100 is complete control) ([4]; Preemergence, 500 g ai/ha): 100 | Plant response rating, Barnyardgrass [5, 22]: 100 | Barnyardgrass plant response rating (0 to 100 scale, 0 is no effect, 100 is complete control) ([5]; Preemergence, 500 g ai/ha): 100 | Plant response rating, Ryegrass, Italian [6, 22]: 60 | Ryegrass, Italian plant response rating (0 to 100 scale, 0 is no effect, 100 is complete control) ([6]; Preemergence, 500 g ai/ha): 90 | Plant response rating, Pigweed [7, 23]: 20 | Plant response rating, Pigweed [7, 24]: 20 | Plant response rating, Ragweed [8, 23]: 0 | Plant response rating, Ragweed [8, 24]: 0 | Plant response rating, Kochia [9, 23]: 50 | Plant response rating, Kochia [9, 24]: 70 | Plant response rating, Corn [10, 23]: 60 | Plant response rating, Corn [10, 24]: 80 | Plant response rating, Foxtail, Giant [11, 23]: 90 | Plant response rating, Foxtail, Giant [11, 24]: 90 | Plant response rating, Wheat [12, 23]: 30 | Plant response rating, Wheat [12, 24]: 60 | Plant response rating, Galium [13, 23]: 50 | Plant response rating, Galium [13, 24]: 60 | Plant response rating, Barnyardgrass [14, 23]: 100 | Plant response rating, Barnyardgrass [14, 24]: 100 | Plant response rating, Blackgrass [15, 23]: 60 | Plant response rating, Blackgrass [15, 24]: 80 | Plant response rating, Ryegrass, Italian [16, 23]: 50 | Plant response rating, Ryegrass, Italian [16, 24]: 80

Source: patent US12077503B2, “Substituted cyclic amides and their use as herbicides” (FMC CORPORATION, priority 2015, dated 2024)
